Results published in paper PMC8998618, “A Pharmacokinetic and Metabolism Study of the TRPC6 Inhibitor SH045 in Mice by LC-MS/MS” (International Journal of Molecular Sciences, 2022).

Tests used:
TRPC6 = tested on: TRPC6; parameters: method as in PMID 29522264; details: in vitro; cited from earlier work
[1] = tested on: cytochrome P450 isoenzymes; experiment: cytochrome P450 isoenzyme inhibition with isoform-specific inhibitors in liver microsomes; format: in vitro ADME, mouse and human; details: MLM and HLM, 2 µM SH045, isoform-specific inhibitors
Description: To determine possible metabolizing pathways of SH045 in MLM and HLM, an in vitro inhibition approach was performed with CYP-isoform specific inhibitors. […]
homogenates, and shaken vigorousl y for 5 min. 40 µL urine was mixed with 4 µL of IS and extracted with 156 µL pure […]
All microsome incubations were stopped with 1 mL ice -cold ACN containing 5 µg/mL IS, vortexed for 1 min and cooled at -20 °C for 10 min.
After centrifugation of mixtures from tissue or microsomal incubations for 15 min at 4 °C, the supernatants were filtered through a 0.2 -µm-pore-size syringe filter and stored in the autosampler at 6 °C until analysis by LC-MS/MS as […]
SM5 Tissue binding of SH045
The tissue binding of SH045 was analyzed exemplarily in lung, liver and kidney homogenate using ultrafiltration [5]. […] 20 µL of the mixture and the filtrate were analyzed for SH045. […]
Testosterone (10 µM in ACN/DPBS 2/3, v/v) instead of SH045 was used as positive control and analyzed by an appropriate HPLC method with UV detection.
Negative controls contained either no NADPH, no MLM or HLM or none of them. The overall velocity (v) of degradation was calculated from altered SH045 concentration (∆c) obtained from reduction peak area ratio of SH045 as: v = ∆c / incubation time × concentration of enzyme × volume (nmol/ min × mg). […]

cytochrome P450 isoenzymes metabolizing SH045 [1]: substrate of CYP3A4 and CYP2A6
Structure (SMILES): C=C[C@@](C)(O)CC[C@H]1C(=C)C[C@H](OC(=O)NC)[C@H]2C(C)(C)CCC[C@]12C [SH045, (1S,4S,4aR,8aS)-4-((S)-3-Hydroxy-3-methylpent-4-en-1-yl)-4a,8,8-trimethyl-3-methylenedecahydronaphthalen-1-yl methylcarbamate]
IC50 (TRPC6): 5.8 nM
